Patent publication US20240116985A1, “STAPLED PEPTIDES AND METHODS THEREOF” (priority 2020, published 2024)

target: T1, full-length beta-Catenin (Uniprot ID P35222) (Homo sapiens, UniProt P35222); experiment: Fluorescence polarization IC50 (beta-catenin / 5FAM-TCF4 10-53 competition); type: binding; details: fluorescence polarization; read-out: beta-Catenin FP IC50
T1 construct: 10 nM full-length beta-Catenin (Uniprot ID P35222)
T1 sequence (P35222 1-781): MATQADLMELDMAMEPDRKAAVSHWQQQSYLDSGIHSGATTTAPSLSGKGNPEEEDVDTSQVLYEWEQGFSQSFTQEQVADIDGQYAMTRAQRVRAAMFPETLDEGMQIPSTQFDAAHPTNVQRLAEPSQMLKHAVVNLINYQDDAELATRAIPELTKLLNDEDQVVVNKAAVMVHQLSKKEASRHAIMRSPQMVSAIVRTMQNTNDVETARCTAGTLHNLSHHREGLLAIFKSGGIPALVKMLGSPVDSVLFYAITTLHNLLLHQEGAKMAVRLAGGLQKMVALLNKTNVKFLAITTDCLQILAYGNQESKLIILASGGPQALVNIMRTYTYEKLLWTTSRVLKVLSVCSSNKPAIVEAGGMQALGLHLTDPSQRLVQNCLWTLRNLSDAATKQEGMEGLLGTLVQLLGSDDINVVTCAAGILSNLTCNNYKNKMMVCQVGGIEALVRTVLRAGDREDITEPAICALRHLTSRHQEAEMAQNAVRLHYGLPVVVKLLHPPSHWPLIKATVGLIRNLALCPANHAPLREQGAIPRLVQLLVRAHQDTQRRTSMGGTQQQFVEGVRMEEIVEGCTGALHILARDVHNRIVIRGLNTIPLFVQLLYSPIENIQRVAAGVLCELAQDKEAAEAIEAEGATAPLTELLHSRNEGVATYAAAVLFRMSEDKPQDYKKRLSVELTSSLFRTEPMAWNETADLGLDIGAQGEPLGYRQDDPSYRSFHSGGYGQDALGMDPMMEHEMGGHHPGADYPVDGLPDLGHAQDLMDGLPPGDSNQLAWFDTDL

SMILES	IC50 [nM]
CC(=O)N1CCC[C@]12CC=CCCCC1(CCCC=CCCCOC(=O)N3CC[C@@](C(=O)N[C@@H](Cc4ccsc4)C(=O)N[C@@H](Cc4csc5ccccc45)C(=O)N[C@@H](CCC(N)=O)C(=O)N[C@@H](CCCCNC(=O)CC[C@@H](C)[C@H]4CC[C@H]5[C@@H]6CC[C@@H]7C[C@H](O)CC[C@]7(C)[C@H]6CC[C@]45C)C(N)=O)(C3)NC(=O)[C@H](CC(C)C)NC(=O)[C@H](Cc3ccccc3)NC(=O)[C@H](C)NC(=O)[C@H](C)NC(=O)[C@H](CC(=O)O)NC(=O)[C@H](CC(=O)O)NC1=O)NC(=O)[C@H](CC(C)(C)C)NC(=O)[C@H](CC(=O)O)NC2=O (stereo partly drawn) [I-1477, Ac-PL3-Asp-Npg-B5-Asp-Asp-Ala-Ala-Phe-Leu-PyrS2-3Thi-BztA-Gln-[lithocholate]-Lys-NH2]	148
CC(=O)N1CCC[C@]12CC=CCCCC1(CCCC=CCCCOC(=O)N3CC[C@@](C(=O)N[C@@H](Cc4ccccc4)C(=O)N[C@@H](Cc4csc5ccccc45)C(=O)N[C@@H](CCO)C(N)=O)(C3)NC(=O)[C@H](CC(C)C)NC(=O)[C@H](Cc3ccccc3)NC(=O)[C@H](C)NC(=O)[C@H](CCCCNC(C)C)NC(=O)[C@H](CCC(N)=O)NC(=O)[C@H](CC(=O)O)NC1=O)NC(=O)[C@H](CC(C)(C)C)NC(=O)[C@H](CC(N)=O)NC2=O (stereo partly drawn) [I-1646, Ac-PL3-Asn-Npg-B5-Asp-Gln-iPrLys-Ala-Phe-Leu-PyrS2-Phe-BztA-Hse-NH2]	640
CC(=O)N1CCC[C@]12CC=CCCCC1(CCCC=CCCCOC(=O)N3CC[C@@](C(=O)N[C@@H](Cc4ccccc4C(F)(F)F)C(=O)N[C@@H](Cc4csc5ccccc45)C(=O)N[C@@H](C)C(N)=O)(C3)NC(=O)[C@H](CC(C)C)NC(=O)[C@H](Cc3ccccc3)NC(=O)[C@@H](C)NC(=O)[C@H](C)NC(=O)[C@H](Cc3cccc(C(=O)O)c3)NC(=O)[C@H](CC(=O)O)NC1=O)NC(=O)[C@H](CC(C)(C)C)NC(=O)[C@H](CC(=O)O)NC2=O (stereo partly drawn) [I-2099, Ac-PL3-Asp-Npg-B5-Asp-3COOHF-Ala-dAla-Phe-Leu-PyrS2-2F3MeF-BztA-Ala-NH2]	325
CC(=O)N1CCC[C@]12CC=CCCCC1(CCCC=CCCCOC(=O)N3CC[C@@](C(=O)N[C@@H](Cc4ccsc4)C(=O)N[C@@H](Cc4csc5ccccc45)C(=O)N[C@@H](CCC(N)=O)C(N)=O)(C3)NC(=O)[C@H](CC(C)C)NC(=O)[C@H](Cc3ccccc3)NC(=O)[C@H](C)NC(=O)[C@H](C)NC(=O)[C@H](Cc3c[nH]cn3)NC(=O)[C@H](CC(=O)O)NC1=O)NC(=O)[C@H](CC(C)(C)C)NC(=O)[C@H](CC(=O)O)NC2=O (stereo partly drawn) [I-1795, Ac-PL3-Asp-Npg-B5-Asp-His-Ala-Ala-Phe-Leu-PyrS2-3Thi-BztA-Gln-NH2]	28
CC(=O)N1CCC[C@]12CC=CCCCCC1(CCCCC=CCCCOC(=O)N3CC[C@@](C(=O)N[C@@H](Cc4ccccc4C(F)(F)F)C(=O)N[C@@H](Cc4csc5ccccc45)C(=O)N[C@@H](CCC(N)=O)C(N)=O)(C3)NC(=O)[C@H](CC(C)C)NC(=O)[C@H](Cc3ccccc3)NC(=O)[C@H](C)NC(=O)[C@H](C)NC(=O)[C@H](Cc3cccc(C(=O)O)c3)NC(=O)[C@H](CC(=O)O)NC1=O)NC(=O)[C@H](CC(C)(C)C)NC(=O)[C@H](CC(=O)O)NC2=O (stereo partly drawn) [I-2514, Ac-PL3-Asp-Npg-B6-Asp-3COOHF-Ala-Ala-Phe-Leu-PyrS2-2F3MeF-BztA-Gln-NH2]	74
CC(=O)N1CCC[C@]12CC=CCCCC1(CCCC=CCCCOC(=O)N3CC[C@@](C(=O)N[C@@H](Cc4ccsc4)C(=O)N[C@@H](Cc4csc5ccccc45)C(=O)N[C@@H](CCC(N)=O)C(N)=O)(C3)NC(=O)[C@H](CC(C)C)NC(=O)[C@H](Cc3ccccc3)NC(=O)[C@H](C)NC(=O)[C@H](C)NC(=O)[C@H](CC(=O)S)NC(=O)[C@H](CC(=O)O)NC1=O)NC(=O)[C@H](CC(C)(C)C)NC(=O)[C@H](CC(=O)O)NC2=O (stereo partly drawn) [I-1947, Ac-PL3-Asp-Npg-B5-Asp-AspSH-Ala-Ala-Phe-Leu-PyrS2-3Thi-BztA-Gln-NH2]	253
CC(=O)N1CCC[C@]12CC=CCCCC1(CCCC=CCCCOC(=O)N3CC[C@@](C(=O)N[C@@H](Cc4cccc(C(N)=O)c4)C(=O)N[C@@H](Cc4csc5ccccc45)C(=O)N[C@@H](CCC(N)=O)C(N)=O)(C3)NC(=O)[C@H](CC(C)C)NC(=O)[C@H](Cc3ccccc3)NC(=O)[C@H](C)NC(=O)[C@H](CCCCNC(C)C)NC(=O)[C@H](CCC(N)=O)NC(=O)[C@H](CC(=O)O)NC1=O)NC(=O)[C@H](CC1CCCCC1)NC(=O)[C@H](CC(N)=O)NC2=O (stereo partly drawn) [I-2163, Ac-PL3-Asn-Cha-B5-Asp-Gln-iPrLys-Ala-Phe-Leu-PyrS2-3cbmf-BztA-Gln-NH2]	3720
CC(=O)N1CCC[C@]12CC=CCCC1(CCC=CCCCOC(=O)N3CC[C@@](C(=O)N[C@@H](Cc4ccsc4)C(=O)N[C@@H](Cc4csc5ccccc45)C(=O)N[C@@H](CCC(N)=O)C(N)=O)(C3)NC(=O)[C@H](CC(C)C)NC(=O)[C@H](Cc3ccccc3)NC(=O)[C@H](C)NC(=O)[C@H](C)NC(=O)[C@H](CC(=O)O)NC(=O)[C@H](CC(=O)O)NC1=O)NC(=O)[C@H](CC(C)(C)C)NC(=O)[C@H](CC(=O)O)NC2=O (stereo partly drawn) [I-1972, Ac-PL3-Asp-Npg-B4-Asp-Asp-Ala-Ala-Phe-Leu-PyrS2-3Thi-BztA-Gln-NH2]	689
CC(=O)N1CCC[C@]12CC=CCCCC1(CCCC=CCCCOC(=O)N3CC[C@@](C(=O)N[C@@H](Cc4ccccc4Cl)C(=O)N[C@@H](Cc4csc5ccccc45)C(=O)N[C@@H](CCC(N)=O)C(N)=O)(C3)NC(=O)[C@H](CO)NC(=O)[C@H](Cc3ccccc3)NC(=O)[C@H](CC(C)C)NC(=O)[C@H](C)NC(=O)[C@H](CC(=O)O)NC(=O)[C@H](CC(=O)O)NC1=O)NC(=O)[C@H](Cc1ccccc1)NC(=O)[C@H](CC(=O)O)NC2=O (stereo partly drawn) [I-1154, Ac-PL3-Asp-Phe-B5-Asp-Asp-Ala-Leu-Phe-Ser-PyrS2-2C1F-BztA-Gln-NH2]	45
CC(C)COC(=O)N1CCC[C@]12CC=CCCCC1(CCCC=CCCCOC(=O)N3CC[C@@](C(=O)N[C@@H](Cc4ccsc4)C(=O)N[C@@H](Cc4csc5ccccc45)C(=O)N[C@@H](Cc4c[nH]cn4)C(N)=O)(C3)NC(=O)[C@H](CCC(N)=O)NC(=O)[C@H](Cc3ccccc3)NC(=O)[C@H](C)NC(=O)[C@H](C)NC(=O)[C@H](CC(=O)O)NC(=O)[C@H](CC(=O)O)NC1=O)NC(=O)[C@H](CC(C)(C)C)NC(=O)[C@H](CC(=O)O)NC2=O (stereo partly drawn) [I-2364, CO2iBu-PL3-Asp-Npg-B5-Asp-Asp-Ala-Ala-Phe-Gln-PyrS2-3Thi-BztA-His-NH2]	116
CC(=O)N1CCC[C@]12CC=CCCCC1(CCCC=CCCCOC(=O)N3CC[C@@](C(=O)N[C@@H](Cc4ccsc4)C(=O)N[C@@H](Cc4csc5ccccc45)C(=O)N[C@@H](Cc4c[nH]cn4)C(=O)N[C@@H](CCCCN)C(N)=O)(C3)NC(=O)[C@H](CCC(N)=O)NC(=O)[C@H](Cc3ccccc3)NC(=O)[C@H](C)NC(=O)[C@H](C)NC(=O)[C@H](CC(=O)O)NC(=O)[C@H](CC(=O)O)NC1=O)NC(=O)[C@H](CC(C)(C)C)NC(=O)[C@H](CC(=O)O)NC2=O (stereo partly drawn) [I-2229, Ac-PL3-Asp-Npg-B5-Asp-Asp-Ala-Ala-Phe-Gln-PyrS2-3thi-BztA-His-Lys-NH2]	6
